Data published in US6355799B1, “Substituted benzene compounds, process for their preparation, and herbicidal and defoliant compositions containing them” (ISK Americas Incorporated, priority 1997, dated 2002).

What was measured:
Format in all cases: in vivo
[1] = system: johnsongrass (Sorghum halepense, SORHA); test: Post-emerge test, greenhouse herbicide activity screening; conditions: post-emerge, 14 days after application, rating scale 0-100
In short: (§1)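 Herbicidal damage is scored 0 (none) to 100 (complete plant death) two weeks after a simulated field spray. Rates span 15–1000 g ai/ha, delivered in acetone at 187 l/ha. For post-emergence treatments, plants have 2–3 leaves and the spray carries 0.25% v/v non-ionic surfactant.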

[2] = system: large crabgrass (Digitaria sanguinalis, DIGSA); test: as above; conditions: post-emerge, 14 days after application, rating scale 0-100
In short: as §1

[3] = system: barnyardgrass (Echinochloa crus-galli, ECHCG); test: as above; conditions: post-emerge, 14 days after application, rating scale 0-100
In short: as §1

[4] = system: green foxtail (Setaria viridis, SETVI); test: as above; conditions: post-emerge, 14 days after application, rating scale 0-100
In short: as §1

[5] = system: velvetleaf (Abutilon theophrasti, ABUTH); test: as above; conditions: post-emerge, 14 days after application, rating scale 0-100
In short: as §1

[6] = system: lambsquarters (Chenopodium album, CHEAL); test: as above; conditions: post-emerge, 14 days after application, rating scale 0-100
In short: as §1

[7] = system: redroot pigweed (Amaranthus retroflexus, AMARE); test: as above; conditions: post-emerge, 14 days after application, rating scale 0-100
In short: as §1

[8] = system: sicklepod (Cassia obtusifolia, CASOB); test: as above; conditions: post-emerge, 14 days after application, rating scale 0-100
In short: as §1

[9] = system: ivyleaf morningglory (Ipomoea hederacea, IPOHE); test: as above; conditions: post-emerge, 14 days after application, rating scale 0-100
In short: as §1

[10] = system: redroot pigweed (Amaranthus retroflexus, AMARE); test: Pre-emerge test, greenhouse herbicide activity screening; conditions: rated 14 days after application, 0 = no damage, 100 = complete death
In short: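 Sandy loam pots; pre-emerge: sown 1 d pre-spray, surface-watered after, then bottom-watered. Post-emerge: sown 8–21 d before, 2–3 leaf stage, + 0.25% v/v NIS, bottom-watered. Acetone, 187 l/ha track spray, 15–1000 g ai/ha. 0–100 injury score, day 14.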

[11] = system: field corn (Zea mays L., var. Dekalb 535, CORN); test: Pre-emerge test, crop safety; conditions: rated 14 days after application, 0 = no damage, 100 = complete death
In short: (§2)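 Plants grown in 10 cm pots of sandy loam mix received acetone-dissolved compounds through a moving flat-fan nozzle. Doses ranged from 15 to 1000 g ai/ha. Pre-emerge pots were seeded one day earlier, post-emerge pots 8–21 days earlier. Fourteen days on, each pot was graded 0–100 for damage.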

[12] = system: upland rice (Oryza sp., var. Tebonnet, RICE); test: Pre-emerge test, crop safety; conditions: rated 14 days after application, 0 = no damage, 100 = complete death
In short: as §2

[13] = system: field corn (Zea mays L., var. Dekalb 535, CORN); test: Post-emerge test, crop safety; conditions: post-emerge, 14 days after application, rating scale 0-100
In short: (§3)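 Compounds in acetone were track-sprayed at 187 l/ha, 15–1000 g ai/ha, onto sandy loam pots. Pre-emerge seeds were sown one day before spraying, with surface watering afterwards. Post-emerge plants were at the 2–3 leaf stage and sprayed with 0.25% v/v non-ionic surfactant. Injury was rated 0–100 at 14 days.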

[14] = system: upland rice (Oryza sp., var. Tebonnet, RICE); test: Post-emerge test, crop safety; conditions: post-emerge, 14 days after application, rating scale 0-100
In short: as §3

[15] = system: johnsongrass (Sorghum halepense, SORHA); test: Pre-emerge test, greenhouse herbicide activity screening; conditions: rated 14 days after application, 0 = no damage, 100 = complete death
In short: as §3

[16] = system: large crabgrass (Digitaria sanguinalis, DIGSA); test: as above; conditions: rated 14 days after application, 0 = no damage, 100 = complete death
In short: as §3

[17] = system: barnyardgrass (Echinochloa crus-galli, ECHCG); test: as above; conditions: rated 14 days after application, 0 = no damage, 100 = complete death
In short: as §3

[18] = system: green foxtail (Setaria viridis, SETVI); test: as above; conditions: rated 14 days after application, 0 = no damage, 100 = complete death
In short: as §3

[19] = system: velvetleaf (Abutilon theophrasti, ABUTH); test: as above; conditions: rated 14 days after application, 0 = no damage, 100 = complete death
In short: as §3

[20] = system: lambsquarters (Chenopodium album, CHEAL); test: as above; conditions: rated 14 days after application, 0 = no damage, 100 = complete death
In short: as §3

[21] = system: sicklepod (Cassia obtusifolia, CASOB); test: as above; conditions: rated 14 days after application, 0 = no damage, 100 = complete death
In short: as §3

[22] = system: ivyleaf morningglory (Ipomoea hederacea, IPOHE); test: as above; conditions: rated 14 days after application, 0 = no damage, 100 = complete death
In short: as §3

COc1c(Cl)cc(F)c(-n2c(=O)cc(C(F)(F)F)n(C)c2=O)c1NC(=O)C=Cc1ccco1 [2-92]
30: phytotoxicity rating CASOB ([8]; 250 g ai/ha) | phytotoxicity rating CORN ([13]; 250 g ai/ha) | Pre-emerge Herbicidal Activity, phytotoxicity rating (0-100), SETVI ([18]; 63 g ai/ha) | Pre-emerge Herbicidal Activity, phytotoxicity rating (0-100), IPOHE ([22]; 63 g ai/ha)
20: phytotoxicity rating CHEAL ([6]; 63 g ai/ha) | phytotoxicity rating AMARE ([7]; 63 g ai/ha) | phytotoxicity rating IPOHE ([9]; 63 g ai/ha) | Pre-emerge phytotoxicity rating (0-100), crop damage, CORN ([11]; 250 g ai/ha) | Pre-emerge Herbicidal Activity, phytotoxicity rating (0-100), DIGSA ([16]; 250 g ai/ha) | Pre-emerge Herbicidal Activity, phytotoxicity rating (0-100), ECHCG ([17]; 250 g ai/ha)
60: phytotoxicity rating RICE ([14]; 250 g ai/ha)
40: Pre-emerge Herbicidal Activity, phytotoxicity rating (0-100), SORHA ([15]; 250 g ai/ha) | Pre-emerge Herbicidal Activity, phytotoxicity rating (0-100), CASOB ([21]; 63 g ai/ha)
50: phytotoxicity rating AMARE ([7]; 250 g ai/ha) | Pre-emerge Herbicidal Activity, phytotoxicity rating (0-100), AMARE ([10]; 63 g ai/ha)
0: phytotoxicity rating SORHA ([1]; 63 g ai/ha) | phytotoxicity rating SORHA ([1]; 250 g ai/ha) | phytotoxicity rating DIGSA ([2]; 63 g ai/ha) | phytotoxicity rating DIGSA ([2]; 250 g ai/ha) | phytotoxicity rating ECHCG ([3]; 63 g ai/ha) | phytotoxicity rating ECHCG ([3]; 250 g ai/ha) | phytotoxicity rating SETVI ([4]; 63 g ai/ha) | phytotoxicity rating SETVI ([4]; 250 g ai/ha) | phytotoxicity rating CASOB ([8]; 63 g ai/ha) | Pre-emerge phytotoxicity rating (0-100), crop damage, CORN ([11]; 63 g ai/ha) | Pre-emerge phytotoxicity rating (0-100), crop damage, RICE ([12]; 63 g ai/ha) | phytotoxicity rating CORN ([13]; 63 g ai/ha) | Pre-emerge Herbicidal Activity, phytotoxicity rating (0-100), SORHA ([15]; 63 g ai/ha) | Pre-emerge Herbicidal Activity, phytotoxicity rating (0-100), DIGSA ([16]; 63 g ai/ha) | Pre-emerge Herbicidal Activity, phytotoxicity rating (0-100), ECHCG ([17]; 63 g ai/ha)
80: phytotoxicity rating CHEAL ([6]; 250 g ai/ha)
10: Pre-emerge phytotoxicity rating (0-100), crop damage, RICE ([12]; 250 g ai/ha) | phytotoxicity rating RICE ([14]; 63 g ai/ha)
100: phytotoxicity rating ABUTH ([5]; 63 g ai/ha) | phytotoxicity rating ABUTH ([5]; 250 g ai/ha) | phytotoxicity rating IPOHE ([9]; 250 g ai/ha) | Pre-emerge Herbicidal Activity, phytotoxicity rating (0-100), AMARE ([10]; 250 g ai/ha) | Pre-emerge Herbicidal Activity, phytotoxicity rating (0-100), ABUTH ([19]; 63 g ai/ha) | Pre-emerge Herbicidal Activity, phytotoxicity rating (0-100), ABUTH ([19]; 250 g ai/ha) | Pre-emerge Herbicidal Activity, phytotoxicity rating (0-100), CHEAL ([20]; 63 g ai/ha) | Pre-emerge Herbicidal Activity, phytotoxicity rating (0-100), CHEAL ([20]; 250 g ai/ha) | Pre-emerge Herbicidal Activity, phytotoxicity rating (0-100), CASOB ([21]; 250 g ai/ha) | Pre-emerge Herbicidal Activity, phytotoxicity rating (0-100), IPOHE ([22]; 250 g ai/ha)
90: Pre-emerge Herbicidal Activity, phytotoxicity rating (0-100), SETVI ([18]; 250 g ai/ha)

COc1c(Cl)cc(F)c(-n2c(=O)cc(C(F)(F)F)n(C)c2=O)c1NC(=O)COc1ccccc1 [2-119]
40: phytotoxicity rating ECHCG ([3]; 63 g ai/ha) | phytotoxicity rating SETVI ([4]; 63 g ai/ha)
70: Pre-emerge phytotoxicity rating (0-100), crop damage, RICE ([12]; 63 g ai/ha) | phytotoxicity rating CORN ([13]; 63 g ai/ha) | Pre-emerge Herbicidal Activity, phytotoxicity rating (0-100), DIGSA ([16]; 63 g ai/ha) | Pre-emerge Herbicidal Activity, phytotoxicity rating (0-100), ECHCG ([17]; 63 g ai/ha) | Pre-emerge Herbicidal Activity, phytotoxicity rating (0-100), IPOHE ([22]; 63 g ai/ha)
30: phytotoxicity rating DIGSA ([2]; 63 g ai/ha) | phytotoxicity rating CASOB ([8]; 63 g ai/ha)
95: Pre-emerge Herbicidal Activity, phytotoxicity rating (0-100), ECHCG ([17]; 250 g ai/ha)
80: phytotoxicity rating DIGSA ([2]; 250 g ai/ha) | phytotoxicity rating CHEAL ([6]; 63 g ai/ha)
20: Pre-emerge phytotoxicity rating (0-100), crop damage, CORN ([11]; 63 g ai/ha)
75: Pre-emerge Herbicidal Activity, phytotoxicity rating (0-100), SORHA ([15]; 63 g ai/ha)
100: phytotoxicity rating ABUTH ([5]; 63 g ai/ha) | phytotoxicity rating ABUTH ([5]; 250 g ai/ha) | phytotoxicity rating CHEAL ([6]; 250 g ai/ha) | phytotoxicity rating AMARE ([7]; 250 g ai/ha) | phytotoxicity rating IPOHE ([9]; 63 g ai/ha) | phytotoxicity rating IPOHE ([9]; 250 g ai/ha) | Pre-emerge Herbicidal Activity, phytotoxicity rating (0-100), AMARE ([10]; 63 g ai/ha) | Pre-emerge Herbicidal Activity, phytotoxicity rating (0-100), AMARE ([10]; 250 g ai/ha) | Pre-emerge phytotoxicity rating (0-100), crop damage, RICE ([12]; 250 g ai/ha) | Pre-emerge Herbicidal Activity, phytotoxicity rating (0-100), SORHA ([15]; 250 g ai/ha) | Pre-emerge Herbicidal Activity, phytotoxicity rating (0-100), DIGSA ([16]; 250 g ai/ha) | Pre-emerge Herbicidal Activity, phytotoxicity rating (0-100), SETVI ([18]; 63 g ai/ha) | Pre-emerge Herbicidal Activity, phytotoxicity rating (0-100), SETVI ([18]; 250 g ai/ha) | Pre-emerge Herbicidal Activity, phytotoxicity rating (0-100), ABUTH ([19]; 63 g ai/ha) | Pre-emerge Herbicidal Activity, phytotoxicity rating (0-100), ABUTH ([19]; 250 g ai/ha) | Pre-emerge Herbicidal Activity, phytotoxicity rating (0-100), CHEAL ([20]; 63 g ai/ha) | Pre-emerge Herbicidal Activity, phytotoxicity rating (0-100), CHEAL ([20]; 250 g ai/ha) | Pre-emerge Herbicidal Activity, phytotoxicity rating (0-100), IPOHE ([22]; 250 g ai/ha)
60: phytotoxicity rating SORHA ([1]; 63 g ai/ha) | phytotoxicity rating CASOB ([8]; 250 g ai/ha) | phytotoxicity rating RICE ([14]; 63 g ai/ha) | Pre-emerge Herbicidal Activity, phytotoxicity rating (0-100), CASOB ([21]; 63 g ai/ha)
90: phytotoxicity rating SORHA ([1]; 250 g ai/ha) | phytotoxicity rating ECHCG ([3]; 250 g ai/ha) | phytotoxicity rating SETVI ([4]; 250 g ai/ha) | phytotoxicity rating AMARE ([7]; 63 g ai/ha) | Pre-emerge phytotoxicity rating (0-100), crop damage, CORN ([11]; 250 g ai/ha) | phytotoxicity rating CORN ([13]; 250 g ai/ha) | phytotoxicity rating RICE ([14]; 250 g ai/ha) | Pre-emerge Herbicidal Activity, phytotoxicity rating (0-100), CASOB ([21]; 250 g ai/ha)
